How the values were obtained:
PARP-1 enzyme = PARP-1 enzyme (Homo sapiens (Human), UniProt P09874); test: PARP1 enzyme activity test (BPS Bioscience chemiluminescence kit); format: biochemical
Description: Inhibition %=(1−(RLUsample−RLUmin)/(RLUmax−RLUmin))×100% (formula 1)

[1] = tested on: breast tumor cells MDA-MB-436; test: MDA-MB-436 cell activity test (CellTiter-Glo, 7 days); format: cell-based; details: Homo sapiens, MDA-MB-436, 168 h, 7 days incubation; for inhibition at 10 µM: read-out: MDA-MB-436 Max inh. % 10 μM; for IC50: read-out: MDA-MB-436 cell inhibitory activity IC50
Procedure: Breast tumor cells MDA-MB-436 were purchased from ATCC, the culture medium was Leibovitz's L-15+10% FBS, and the cells were cultured in a CO2-free incubator at 37° C. On day 1, the cells in the exponential growth phase were collected, and the cell suspension was adjusted to 4000 cells/135 μL with the culture medium. 135 μL of the cell suspension was added to each well of a 96-well cell culture plate and incubated overnight. On day 2, compounds at different concentrations were added, and the plate was placed in the incubator and incubated for 7 days. After the incubation was completed, according to operation instructions for a CellTiter-Glo kit (Promega, G7573), 75 μL of CTG solution, which was already pre-melted and equilibrated to room temperature, was added to each well, and the mixture was uniformly mixed for 2 min using a microplate shaker. The plate was placed at room temperature for 10 min, and then […] were measured using an Envision2104 plate reader (PerkinElmer). The inhibition rate was calculated using formula (1), where RLUcompound was the readout of the drug treated group, RLUcontrol was the average value of the vehicle control group, and RLUblank was the average value of the cell-free well. The IC50 value was calculated using GraphPad Prism software.

PARP-1 enzyme, sequence (P09874 whole entry): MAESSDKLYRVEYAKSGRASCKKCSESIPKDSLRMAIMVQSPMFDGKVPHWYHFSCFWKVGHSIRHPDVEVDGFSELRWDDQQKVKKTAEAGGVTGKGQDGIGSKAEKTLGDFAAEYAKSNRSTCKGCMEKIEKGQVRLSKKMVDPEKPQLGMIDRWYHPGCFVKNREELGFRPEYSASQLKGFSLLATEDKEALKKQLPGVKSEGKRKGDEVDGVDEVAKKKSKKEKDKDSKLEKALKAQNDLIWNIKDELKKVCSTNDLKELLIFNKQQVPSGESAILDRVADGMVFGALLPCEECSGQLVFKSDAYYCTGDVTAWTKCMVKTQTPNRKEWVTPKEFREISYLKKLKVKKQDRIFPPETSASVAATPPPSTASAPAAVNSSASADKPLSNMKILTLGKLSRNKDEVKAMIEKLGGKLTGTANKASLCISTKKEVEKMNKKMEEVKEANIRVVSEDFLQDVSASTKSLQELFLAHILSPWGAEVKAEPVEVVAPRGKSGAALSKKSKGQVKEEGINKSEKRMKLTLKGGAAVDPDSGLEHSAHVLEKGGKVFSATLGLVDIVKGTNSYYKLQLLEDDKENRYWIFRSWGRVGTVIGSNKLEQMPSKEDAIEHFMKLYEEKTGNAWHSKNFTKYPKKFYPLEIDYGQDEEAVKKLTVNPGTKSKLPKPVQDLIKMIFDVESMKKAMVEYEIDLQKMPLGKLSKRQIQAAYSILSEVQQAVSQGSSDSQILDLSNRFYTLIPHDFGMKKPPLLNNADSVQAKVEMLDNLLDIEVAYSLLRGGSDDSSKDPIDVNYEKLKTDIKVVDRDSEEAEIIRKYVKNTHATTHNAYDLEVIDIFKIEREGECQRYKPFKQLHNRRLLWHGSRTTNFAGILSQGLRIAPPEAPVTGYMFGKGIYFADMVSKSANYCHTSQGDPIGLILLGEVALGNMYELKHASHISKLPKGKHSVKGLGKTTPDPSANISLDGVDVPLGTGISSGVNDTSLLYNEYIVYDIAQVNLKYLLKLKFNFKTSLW

SMILES | IC50 (PARP-1 enzyme) [pM] | IC50 [1] [pM] | inhibition at 10 µM [1] [%]
CCc1cc2ncc(CN3CCN(c4ccc(NC(=O)[C@@H]5CC5(F)F)nc4)CC3)cc2[nH]c1=O (single isomer, unassigned) [Compound 50] | 690 | 3000 | 92.9
CCc1cc2ncc(CN3CCN(c4ccc(NC(=O)[C@H]5CC5(F)F)nc4)CC3)cc2[nH]c1=O (single isomer, unassigned) [Compound 51] | 660 | 8500 | 95.6
CCc1cc2ncc(CN3CCN(c4ccc5c(c4)CN(C)C5=O)CC3)cc2[nH]c1=O [Compound 1, 3-ethyl-7-((4-(2-methyl-1-oxoisoindolin-5-yl)piperazin-1-yl)methyl)-1,5-naphthyridin-2 (1H)-one] | 3660 |  | 
CCc1cc2ncc(CN3CCN(c4cnc(C(=O)NC)cn4)CC3)cc2[nH]c1=O [Compound 2, 5-(4-((7-ethyl-6-oxo-5,6-dihydro-1,5-naphthyridin-3-yl)methyl)piperazin-1-yl)-N-methylpyrazine-2-carboxamide] | 2010 |  | 
CCc1cc2ncc(CN3CCN(c4ccc(-c5nnc(C)o5)nc4)CC3)cc2[nH]c1=O [Compound 3, 3-ethyl-7-((4-(6-(5-methyl-1,3,4-oxadiazol-2-yl)pyridin-3-yl)piperazin-1-yl)methyl)-1,5-naphthyridin-2 (1H)-one] | 1330 |  | 
CCc1cc2ncc(CN3CCN(c4cnc(C(=O)NC)c(F)c4)CC3)cc2[nH]c1=O [Compound 6, 5-(4-((7-ethyl-6-oxo-5,6-dihydro-1,5-naphthyridin-3-yl)methyl)piperazin-1-yl)-3-fluoro-N-methylpicolinamide] | 560 | 10000 | 85.7
CCc1cc2ncc(CN3CCN(c4ccc(NC(=O)OC)nc4)CC3)cc2[nH]c1=O [Compound 8, methyl(5-(4-((7-ethyl-6-oxo-5,6-dihydro-1,5-naphthyridin-3-yl)methyl)piperazin-1-yl)pyridin-2-yl)carbamate] | 580 |  | 
CCc1cc2ncc(CN3CCN(c4cnc(C(=O)NC)cc4F)CC3)cc2[nH]c1=O [Compound 12, 5-(4-((7-ethyl-6-oxo-5,6-dihydro-1,5-naphthyridin-3-yl)methyl)piperazin-1-yl)-4-fluoro-N-methylpicolinamide] | 1600 |  | 
CCc1cc2ncc(CN3CCN(c4ccc(NC(=O)NC)nc4)CC3)cc2[nH]c1=O [Compound 14, 1-(5-(4-((7-ethyl-6-oxo-5,6-dihydro-1,5-naphthyridin-3-yl)methyl)piperazin-1-yl)pyridin-2-yl)-3-methylurea] | 710 |  | 
CCc1cc2ncc(CN3CCN(c4cn5cc(C)nc5cn4)CC3)cc2[nH]c1=O [Compound 15, 3-ethyl-7-((4-(2-methylimidazo[1,2-a]pyrazin-6-yl)piperazin-1-yl)methyl)-1,5-naphthyridin-2 (1H)-one] | 650 |  | 
CCc1cc2ncc(CN3CCN(c4ccc5nc(C)cn5n4)CC3)cc2[nH]c1=O [Compound 27, 3-ethyl-7-((4-(2-methylimidazo[1,2-b]pyridazin-6-yl)piperazin-1-yl)methyl)-1,5-naphthyridin-2 (1H)-one] | 750 |  | 
CCc1cc2ncc(CN3CCN(c4ccc(-c5cnn[nH]5)nc4)CC3)cc2[nH]c1=O [Compound 29, 7-((4-(6-(1H-1,2,3-triazol-5-yl)pyridin-3-yl)piperazin-1-yl)methyl)-3-ethyl-1,5-naphthyridin-2 (1H)-one] | 450 |  | 
CCc1cc2ncc(CN3CCN(c4ccc(-c5ccn[nH]5)nc4)CC3)cc2[nH]c1=O [Compound 30, 7-((4-(6-(1H-pyrazol-5-yl)pyridin-3-yl)piperazin-1-yl)methyl)-3-ethyl-1,5-naphthyridin-2 (1H)-one] | 450 |  | 
CCc1cc2ncc(CN3CCN(c4ccc5nc(C)nn5c4)CC3)cc2[nH]c1=O [Compound 31, 3-ethyl-7-((4-(2-methyl-[1,2,4]triazolo[1,5-a]pyridin-6-yl)piperazin-1-yl)methyl)-1,5-naphthyridin-2 (1H)-one] | 1700 |  | 
CCc1cc2ncc(CN3CCN(c4ccc(Nc5ccn(C)n5)nc4)CC3)cc2[nH]c1=O [Compound 32, 3-ethyl-7-((4-(6-((1-methyl-1H-pyrazol-3-yl)amino)pyridin-3-yl)piperazin-1-yl)methyl)-1,5-naphthyridin-2 (1H)-one] | 2000 |  | 
CCc1cc2ncc(CN3CCN(c4ccc(NC(=O)[C@H]5C[C@H]5F)nc4)CC3)cc2[nH]c1=O [Compound 34, (1R,2R)—N-(5-(4-((7-ethyl-6-oxo-5,6-dihydro-1,5-naphthyridin-3-yl)methyl)piperazin-1-yl)pyridin-2-yl)-2-fluorocyclopropane-1-carboxamide] |  | 16500 | 81.9
CCc1cc2ncc(CN3CCN(c4ccc(NC(=O)[C@@H]5C[C@H]5F)nc4)CC3)cc2[nH]c1=O [Compound 35, (1S,2R)—N-(5-(4-((7-ethyl-6-oxo-5,6-dihydro-1,5-naphthyridin-3-yl)methyl)piperazin-1-yl)pyridin-2-yl)-2-fluorocyclopropane-1-carboxamide] |  | 9800 | 90.4
CCc1cc2ncc(CN3CCN(c4cn5cc(C(F)(F)F)nc5cn4)CC3)cc2[nH]c1=O [Compound 43, 3-ethyl-7-((4-(2-(trifluoromethyl)imidazo[1,2-a]pyrazin-6-yl)piperazin-1-yl)methyl)-1,5-naphthyridin-2 (1H)-one] | 930 |  | 
CCc1cn2cc(N3CCN(Cc4cnc5cc(CC)c(=O)[nH]c5c4)CC3)ncc2n1 [Compound 44, 3-ethyl-7-((4-(2-ethylimidazo[1,2-a]pyrazin-6-yl)piperazin-1-yl)methyl)-1,5-naphthyridin-2 (1H)-one] | 920 |  | 
CCc1cc2ncc(CN3CCN(c4cn5cc(C(F)F)nc5cn4)CC3)cc2[nH]c1=O [Compound 45] | 730 |  | 
CCc1cc2ncc(CN3CCN(c4ccc(C(=O)NC5CN(c6ccccc6)C5)nc4)CC3)cc2[nH]c1=O [Compound 46, 5-(4-((7-ethyl-6-oxo-5,6-dihydro-1,5-naphthyridin-3-yl)methyl)piperazin-1-yl)-N-(1-phenylazetidin-3-yl)picolinamide] | 560 |  | 

The next lines start with results.

IC50 (PARP-1 enzyme) [pM] | IC50 [1] [pM] | SMILES | inhibition at 10 µM [1] [%]
320 |  | CCc1cc2ncc(CN3CCN(c4ccc(NC(C)=O)nc4)CC3)cc2[nH]c1=O [Compound 7, N-(5-(4-((7-ethyl-6-oxo-5,6-dihydro-1,5-naphthyridin-3-yl)methyl)piperazin-1-yl)pyridin-2-yl)acetamide] | 
760 |  | CCc1cc2ncc(CN3CCN(c4cnc(C(=O)NC5CC5)cc4F)CC3)cc2[nH]c1=O [Compound 13, N-cyclopropyl-5-(4-((7-ethyl-6-oxo-5,6-dihydro-1,5-naphthyridin-3-yl)methyl)piperazin-1-yl)-4-fluoropicolinamide] | 
510 |  | CCc1cc2ncc(CN3CCN(c4ccc(C(=O)NC5CCNCC5)nc4)CC3)cc2[nH]c1=O [Compound 16, 5-(4-((7-ethyl-6-oxo-5,6-dihydro-1,5-naphthyridin-3-yl)methyl)piperazin-1-yl)-N-(piperidin-4-yl)picolinamide] | 
350 |  | CCc1cc2ncc(CN3CCN(c4ccc(C(=O)NC5CCN(C)CC5)nc4)CC3)cc2[nH]c1=O [Compound 17, 5-(4-((7-ethyl-6-oxo-5,6-dihydro-1,5-naphthyridin-3-yl)methyl)piperazin-1-yl)-N-(1-methylpiperidin-4-yl)picolinamide] | 
330 |  | CCc1cc2ncc(CN3CCN(c4ccc(C(=O)N[C@@H]5CCNC5)nc4)CC3)cc2[nH]c1=O [Compound 18, (R)-5-(4-((7-ethyl-6-oxo-5,6-dihydro-1,5-naphthyridin-3-yl)methyl)piperazin-1-yl)-N-(pyrrolidin-3-yl)picolinamide] | 
320 |  | CCc1cc2ncc(CN3CCN(c4ccc(C(=O)N[C@H]5CCNC5)nc4)CC3)cc2[nH]c1=O [Compound 20, (S)-5-(4-((7-ethyl-6-oxo-5,6-dihydro-1,5-naphthyridin-3-yl)methyl)piperazin-1-yl)-N-(pyrrolidin-3-yl)picolinamide] | 
580 |  | CCc1cc2ncc(CN3CCN(c4ccc(NC(=O)[C@H]5CCN(C)C5)nc4)CC3)cc2[nH]c1=O [Compound 36, (S)—N-(5-(4-((7-ethyl-6-oxo-5,6-dihydro-1,5-naphthyridin-3-yl)methyl)piperazin-1-yl)pyridin-2-yl)-1-methylpyrrolidine-3-carboxamide] | 
350 |  | CCc1cc2ncc(CN3CCN(c4ccc(C(=O)Nc5ccn(C)n5)nc4)CC3)cc2[nH]c1=O [Compound 48, 5-(4-((7-ethyl-6-oxo-5,6-dihydro-1,5-naphthyridin-3-yl)methyl)piperazin-1-yl)-N-(1-methyl-1H-pyrazol-3-yl)picolinamide] | 
 | 3100 | CCc1cc2ncc(CN3CCN(c4ccc(C(=O)NCCOC5CC5(F)F)nc4)CC3)cc2[nH]c1=O (centres unmarked) [Compound 52, N-(2-(2,2-difluorocyclopropoxy)ethyl)-5-(4-((7-ethyl-6-oxo-5,6-dihydro-1,5-naphthyridin-3-yl)methyl)piperazin-1-yl)picolinamide] | 92.4
 | 2200 | CCc1cc2ncc(CN3CCN(c4ccc(C(=O)NCCOC5CC5)nc4)CC3)cc2[nH]c1=O [Compound 53, N-(2-cyclopropoxyethyl)-5-(4-((7-ethyl-6-oxo-5,6-dihydro-1,5-naphthyridin-3-yl)methyl)piperazin-1-yl)picolinamide] | 90.6
